We go through two molecules from US10729741B2, “Methods of treating burns with i.v. cP12 in a window from 2 to 6 hours after injury” (NeoMatrix Therapeutics Inc., priority 2017, dated 2020).

For data set [1], the system named is porcine burns. As to the kind of experiment: porcine vertical injury progression burn model, wound closure by H&E histology. It counts as in vivo, pig. The note with it: for percent wounds closed (100% re-epithelialization) at 14 d post-burn: compiled data. The procedure:
For a pathobiology proof-of-principle study we used a validated porcine vertical injury progression burn model (Singer A J, Hirth D, McClain S A, Crawford L, Lin F, and Clark R A. Validation of a vertical progression porcine burn model. J Burn Care Res. 2011; 32(6):638-46). In short, while under general anaesthesia, twenty burns were created on the dorsal skin of four outbred female Yorkshire pigs (˜25 kg) using a 2.5×2.5×7.5 cm, 150 gram aluminum bar equilibrated in an 80° C. water bath and applied for 20 s. The application of the 80° C. aluminum bar caused burn injury a little beyond mid-dermis but often progressed to full-thickness within 3-7 days. All burns were treated with petrolatum, and protected with Tegaderm. In some pigs, a fibronectin (FN)-derived peptide (P12) (SEQ ID NO:1) was infused over 30 min at 1, 2, and 4 h post-burn using doses of 0.003, 0.01 or 0.03 mg/kg. The infused P12 peptide (SEQ ID NO:1) was cyclized (cP12) (SEQ ID NO:2) to prevent exopeptidase digestion from amino- and carboxy-peptidases, which are common in the blood and skin.
Tissue specimens taken at 14 days after a 30 min infusion of cP12 (SEQ ID NO:2) doses at 0.003, 0.01, 0.03 or 0.1 mg/kg, where infusions began at 1, 4, 8, 12 and 24 h post-burn, have been fixed, stained with hematoxylin and eosin (H&E), and determined whether the surface of the wound was 100% re-epithelialized, i.e. wound closure obtained. The percent wounds totally re-epithelialized at each cP12 (SEQ ID NO:2) dose and each post-burn time of onset of a 30 min infusion are recorded in Table 1. The number of pigs used for each dose and time is denoted in Table 1 by parentheses. Each pig while under general anesthesia had 20 burn wounds administered on the back by a 2.5×2.5 aluminum bar heated to 80° C. and applied to the skin for 20 sec.
The effect of cP12 (SEQ ID NO:2) doses at 0.003, 0.01, 0.03 or 0.1 mg/kg at 4 h post-burn 30 min-infusion on percent wounds closed at 14d post-burn the 5 experiments performed under these conditions are shown in Table 2. The dates indicate the onset on each experiment, i.e. the date the pigs receive burns.

Data set [2] is described as follows: anaphylactoid response with 30 min infusion in pig models. It counts as in vivo. As for the experimental part:
Depending on the animal type, cP12 (SEQ ID NO:2) (or linear P12. SEQ ID NO:1) can induce an anaphylactoid response at 2.5 to 10 mg/kg given as an iv bolus or even a rapid infusion. This reaction is less likely with a slower infusion.

The test system of data set [3] is mesenchymal cell. Conditions: in solution; intrinsically and synergistically with growth factors, especially PDGF-BB; cited from earlier work.
In data set [4] the test system is adult human dermal fibroblasts (AHDF). The note with it: oxidative and cytokine stress and/or nutrient withdrawal, in the presence of PDGF-BB; cited from earlier work.
Data set [5] concerns burn injury. Conditions: rat burn model; cited from earlier work.
The subject of data set [6] is burn injury. Conditions: cited from earlier work.

Like-named read-outs stand apart in the source and are kept apart here. Residues, ends and D or L forms follow the SMILES beside them.

`CC[C@H](C)[C@@H]1NC(=O)[C@H](Cc2ccc(O)cc2)NC(=O)[C@H](CCCCN)NC(=O)[C@H](CO)NC(=O)[C@H]([C@@H](C)CC)NC(=O)[C@H](Cc2c[nH]cn2)NC(=O)[C@H](CO)NC(=O)[C@@H]2CCCN2C(=O)[C@H](CCCCN)NC(=O)[C@@H]2CCCN2C(=O)[C@H](CCCNC(=N)N)NC(=O)[C@H](Cc2c[nH]c3ccccc23)NC(=O)[C@H](CCCNC(=N)N)NC(=O)[C@H](CC(C)C)NC1=O` [cP12] (HELM PEPTIDE1{H.I.S.K.Y.I.L.R.W.R.P.K.P.S}$PEPTIDE1,PEPTIDE1,1:R1-14:R2$$$V2.0): the “percent wounds closed (100% re-epithelialization) at 14 d post-burn” value is recorded as 17 (5) percent in data set [1] (0.003 mg/kg, 30 min i.v. infusion begun 1 h post-burn); 37 (3) percent in data set [1] (0.003 mg/kg, 30 min i.v. infusion begun 4 h post-burn); 28 (8) percent in data set [1] (0.01 mg/kg, 30 min i.v. infusion begun 1 h post-burn); 65 (5) percent in data set [1] (0.01 mg/kg, 30 min i.v. infusion begun 4 h post-burn); 34 (5) percent in data set [1] (0.01 mg/kg, 30 min i.v. infusion begun 8 h post-burn); 40 (3) percent in data set [1] (0.01 mg/kg, 30 min i.v. infusion begun 12 h post-burn). Besides, the “percent wounds closed (100% re-epithelialization) at 14 d post-burn” value was 40 (3) percent in data set [1] (0.01 mg/kg, 30 min i.v. infusion begun 24 h post-burn); 8 (8) percent in data set [1] (0.03 mg/kg, 30 min i.v. infusion begun 1 h post-burn); 25 (3) percent in data set [1] (0.03 mg/kg, 30 min i.v. infusion begun 4 h post-burn); 25 (5) percent in data set [1] (0.1 mg/kg, 30 min i.v. infusion begun 1 h post-burn); 50 (2) percent in data set [1] (0.1 mg/kg, 30 min i.v. infusion begun 4 h post-burn); 28 (5) percent in data set [1] (0.1 mg/kg, 30 min i.v. infusion begun 8 h post-burn). In addition, the “percent wounds closed (100% re-epithelialization) at 14 d post-burn” value in data set [1] (0.1 mg/kg, 30 min i.v. infusion begun 12 h post-burn) was 25 (3) percent; in data set [1] (0.1 mg/kg, 30 min i.v. infusion begun 24 h post-burn) it was 17 (3) percent. Further, in data set [1] (administered 2 to 6 hours after wounding versus one hour or 8 to 12 hours after wounding), the “effectiveness of i.v. treatment by time of administration after wounding” value is given as “more effective”. In data set [2], the anaphylactoid response entry is on record as “avoid any anaphylacoid response”.

On to “P12: 14-residue fibronectin fragment PSHISKYILRWRPK, cryptic within fibronectin's first type III repeat (FNIII1) (a 14-residue peptide that is cryptic within the immunoglobulin sandwich type of beta-pleated sheet of fibronectin′s first type III repeat)”, for which the “mesenchymal cell growth, proliferation and migration” value in data set [3] was “promotes mesenchymal cell growth, proliferation and migration”. Further, in data set [4], the “protection from cell death” value is “protects”. Besides, the burn injury progression entry in data set [5] and in data set [6] (porcine burn model) was “limits burn injury progression” throughout. For the same molecule, in data set [6] (vertical burn injury progression pig model), the scarring entry is on record as “mitigates scarring”.
